Results published in patent EP0294746A1, “Bicyclic nitro compounds” (L. GIVAUDAN & CIE Société Anonyme, priority 1987, dated 1988).

Legend:
[1] = Odour threshold and odour value determination; settings: definition per Huber, Seifen-Oele-Fette-Wachse 110 (1984) 448-451
Protocol: Die Verbindungen der Formel I eignen sich aufgrund ihrer natürlichen Geruchsnoten insbesondere zur Modifizierung von bekannten Kompositionen. Hervorgehoben werden soll insbesondere ihre ausserordentliche Geruchsstärke: Der Geruchsschwellenwert beträgt 0,29 bzw. 0,57 ng/l, der Geruchswert 2983 bzw. 2139. Bezüglich Definition von Geruchswert und Geruchsschwellenwert siehe z.B. Ulrich A. Huber, Seifen - -Oele - Fette - Wachse 110, Nr. 15 (1984) 448-451.

[2] = Odour description (olfactory evaluation); settings: odour note in words

Compound | Geruchsschwellenwert [1] | Geruch [2]
CCc1cc2c(cc1[N+](=O)[O-])C(C)(C)C(C)C2(C)C (stereo not shown) [Beispiel 2, 5-Nitro-6-äthyl-1,1,2,3,3-pentamethylindan] | 0,29 ng/l | moschus-artig
CCc1cc2c(cc1[N+](=O)[O-])C(C)(C)CCC2(C)C [Beispiel 1, 6-Nitro-7-äthyl-1,1,4,4-tetramethyl-1,2,3,4-tetrahydronaphthalin] | 0,57 ng/l | Moschus-artig, süss, pudrig
